Measured values published in patent US8772302B2, “GPR 119 agonists” (Cadila Healthcare Limited, priority 2009, dated 2014).
Where two headings read alike, the source gives them in different places.

Assays:
[1] = system: C57/BL6 mice; test: Oral glucose tolerance test (OGTT) in C57/BL6 mice; assay type: in vivo, mouse; conditions: Mus musculus, 2 h, serum glucose AUC, single oral dose, glucose load 3 gm/kg, read-out: % reduction in AUC at 50 mg/kg
Experimental: Oral Glucose Tolerance Tests (OGTT) in C57/BL6 Mice:
C57/BL6 mice of 6-8 week age are used for this experiment. Animals are grouped based on non-fasting serum glucose levels and kept on fasting for overnight (day before OGTT). On the experiment day, […], 30 min post dosing animals are bled for basal glucose level estimation and at the same time glucose load (3 gm/kg) will be administered per orally. Blood is collected at time points corresponding to 20, 40, 60 and 120 min after glucose load administration. Serum is separated for determination of glucose levels and change in area under curve for glucose is calculated and provided in table 4 as % reduction in AUC.

[2] = target: T1, recombinant human GPR 119 receptor (Homo sapiens, UniProt Q8TDV5); test: cAMP assay in stable cell line expressing recombinant human GPR 119 receptor; assay type: cell-based; conditions: intracellular cAMP
T1 construct: expressed in transfected cells
T1 sequence (Q8TDV5 1-335): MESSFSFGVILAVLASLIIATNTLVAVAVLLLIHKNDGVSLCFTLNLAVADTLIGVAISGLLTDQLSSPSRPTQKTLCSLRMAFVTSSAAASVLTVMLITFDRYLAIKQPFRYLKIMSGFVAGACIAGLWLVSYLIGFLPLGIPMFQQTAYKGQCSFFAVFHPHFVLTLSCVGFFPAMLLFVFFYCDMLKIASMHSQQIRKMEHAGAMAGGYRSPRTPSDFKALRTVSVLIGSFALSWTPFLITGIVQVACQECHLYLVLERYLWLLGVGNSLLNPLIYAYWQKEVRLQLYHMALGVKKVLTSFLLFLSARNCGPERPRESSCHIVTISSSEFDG
Source text: cAMP assay: A stable cell line expressing recombinant human GPR 119 receptor was established and used to investigate the efficacy of the compounds of the invention based on the intracellular levels of cyclic AMP (cAMP) using commercially available cAMP kits. Compounds of the invention produced a concentration dependent increase in cAMP level and EC50 values of representative compounds were provided in table 1.

[3] = system: Sprague Dawley rats; test: Feed intake in Sprague Dawley rats; assay type: in vivo, rat; conditions: Rattus norvegicus, cumulative feed intake vs vehicle; for inhibition in vivo at 25 mg/kg: ip, intraperitoneal; for inhibition in vivo at 50 mg/kg: oral
Source text: In Vivo Efficacy Studies: Feed Intake in Sprague Dawley Rats:
Sprague Dawley rats of 6-8 week age are used for this experiment they are kept for acclimatization in reversed light/dark cycle for 15 days. Animals will have free access to a standard chow diet and water during acclimatization period. After 15 days reversed light/dark cycle acclimatization animals are trained for fasting induced feed intake for 5 days till they show consistent feed intake. Grouping was done based on the monitored feed intake during the training days. On treatment day each group of animals are dosed with test compound or vehicle by appropriate routes of administration (orally or intraperitoneally). Exactly 30 min. after treatment, measured amount of standard chow diet is provided and recorded as O-min feed offered. Then subsequently 2, 4, 6 and 24 hour after O-min, feed intake is measured and the cumulative feed intakes are calculated. The change in cumulative feed intake as compared to vehicle treated control at each time point is calculated for test compound.

[4] = 2 hour, read-out: % reduction in food in take, 2 hour
[5] = 4 hour, read-out: % reduction in food in take, 4 hour
[6] = 6 hour, read-out: % reduction in food in take, 6 hour
[7] = 24 hour, read-out: % reduction in food in take, 24 hour

| EC50 [2] | Compound | inhibition in vivo at 50 mg/kg [1] | inhibition in vivo at 25 mg/kg [3, 4] | inhibition in vivo at 25 mg/kg [3, 5] | inhibition in vivo at 25 mg/kg [3, 6] | inhibition in vivo at 25 mg/kg [3, 7] | inhibition in vivo at 50 mg/kg [3, 4] | inhibition in vivo at 50 mg/kg [3, 5] | inhibition in vivo at 50 mg/kg [3, 6] | inhibition in vivo at 50 mg/kg [3, 7] |
| --- | --- | --- | --- | --- | --- | --- | --- | --- | --- | --- |
| 13 nM | Cc1c(Oc2ccc([C@H]3CO[S@@](=O)OC3)cc2)ncnc1OC1CCN(c2nc(C(C)C)no2)CC1 [Example 3, cis-5-(4-((6-((1-(3-isopropyl-1,2,4-oxadiazol-5-yl)piperidin-4-yl)oxy)-5-methylpyrimidin-4-yl)oxy)phenyl)-1,3,2-dioxathiane 2-oxide] | 23% | 34% | 25% | 25% | 17% |  |  |  |  |
| 11 nM | Cc1c(Oc2ccc([C@H]3CO[S@](=O)OC3)cc2)ncnc1OC1CCN(c2nc(C(C)C)no2)CC1 [Example 4, trans-5-(4-((6-((1-(3-isopropyl-1,2,4-oxadiazol-5-yl)piperidin-4-yl)oxy)-5-methylpyrimidin-4-yl)oxy)phenyl)-1,3,2-dioxathiane 2-oxide] | 31% | 40% | 33% | 21% |  | 30% | 24% | 9.5% | 6% |
| 12 nM | CCc1cnc(N2CCC(Oc3ncnc(Oc4ccc([C@H]5CO[S@@](=O)OC5)cc4)c3C)CC2)nc1 [Example 9, cis-5-(4-((6-((1-(5-ethylpyrimidin-2-yl)piperidin-4-yl)oxy)-5-methylpyrimidin-4-yl)oxy)phenyl)-1,3,2-dioxathiane 2-oxide] | 31% | 44% | 37% | 30% | 24% | 25% | 12% | 6% | 2% |
| 73.6 nM | CCc1cnc(N2CCC(Oc3ncnc(Oc4ccc([C@H]5CO[S@](=O)OC5)cc4)c3C)CC2)nc1 [Example 10, trans-5-(4-((6-((1-(5-ethylpyrimidin-2-yl)piperidin-4-yl)oxy)-5-methylpyrimidin-4-yl)oxy)phenyl)-1,3,2-dioxathiane 2-oxide] | 29% |  |  |  |  | 36% | 29% | 15% | 15% |
| 15 nM | Cc1c(Oc2ccc([C@H]3CO[S@](=O)OC3)cc2)ncnc1OC1CCN(C(=O)OC(C)(C)C)CC1 [Example 16, trans-tert-butyl 4-((5-methyl-6-(4-(2-oxido-1,3,2-dioxathian-5-yl)phenoxy)pyrimidin-4-yl)oxy)piperidine-1-carboxylate] | 34% | 21% | 27% | 10% |  |  |  |  |  |
| 27 nM | Cc1c(Oc2ccc([C@H]3CO[S@@](=O)OC3)cc2)ncnc1OC1CCN(C(=O)OCC(C)C)CC1 [Example 27, cis-isobutyl 4-((5-methyl-6-(4-(2-oxido-1,3,2-dioxathian-5-yl)phenoxy)pyrimidin-4-yl)oxy)piperidine-1-carboxylate] | 30% | 35% | 35% | 31% | 17% | 23% | 20% | 23% | 5% |
| 57 nM | Cc1c(Oc2ccc([C@H]3CO[S@](=O)OC3)cc2)ncnc1OC1CCN(C(=O)OCC(C)C)CC1 [Example 28, trans-isobutyl 4-((5-methyl-6-(4-(2-oxido-1,3,2-dioxathian-5-yl)phenoxy)pyrimidin-4-yl)oxy)piperidine-1-carboxylate] | 40% | 67% | 59% | 40% | 24% | 24% | 19% | 9% | 2% |
| 86 nM | CCc1cnc(N2CCC(Oc3ncnc(Oc4ccc(C[C@H]5CO[S@](=O)OC5)cc4)c3C)CC2)nc1 [Example 32, trans-5-(4-((6-((1-(5-ethylpyrimidin-2-yl)piperidin-4-yl)oxy)-5-methylpyrimidin-4-yl)oxy)benzyl)-1,3,2-dioxathiane 2-oxide] | 41% | 50% | 37% | 32% | 18% |  |  |  |  |
| 86 nM | CCOC(=O)N1CCC(Oc2ncnc(Oc3ccc([C@H]4CO[S@@](=O)OC4)cc3)c2C)CC1 [Example 33, cis-ethyl 4-((5-methyl-6-(4-(2-oxido-1,3,2-dioxathian-5-yl)phenoxy)pyrimidin-4-yl)oxy)piperidine-1-carboxylate] | 30% | 70% | 44% | 24% | 21% |  |  |  |  |
| 93 nM | CCOC(=O)N1CCC(Oc2ncnc(Oc3ccc([C@H]4CO[S@](=O)OC4)cc3)c2C)CC1 [Example 34, trans-ethyl 4-((5-methyl-6-(4-(2-oxido-1,3,2-dioxathian-5-yl)phenoxy)pyrimidin-4-yl)oxy)piperidine-1-carboxylate] | 27% | 45% | 30% | 19% | 10% |  |  |  |  |
| 108 nM | Cc1c(Oc2ccc(C[C@H]3CO[S@](=O)OC3)cc2)ncnc1OC1CCN(C(=O)OCC(C)C)CC1 [Example 44, trans-isobutyl 4-((5-methyl-6-(4-((2-oxido-1,3,2-dioxathian-5-yl)methyl)phenoxy)pyrimidin-4-yl)oxy)piperidine-1-carboxylate] | 31% |  |  |  |  | 38% | 30% | 24% | 7% |
